According to PMC7971191 (Journal of medicinal chemistry, 2020):

Key:
[1] = tested on: wild-type HIV-1 (NL4-3 strain); experiment: Cell-based antiviral assay; conditions: for fold less active than 12a in antiviral assays: compared with 12a
[2] = target: wild-type HIV-1 protease (Human immunodeficiency virus type 1 group M subtype B, UniProt P12497, Q495K); assay type: biochemical, HIV-1 (NL4-3 strain); conditions: for fold less active than the corresponding tert-leucine analogue: 12b vs 12a, 15b vs 15a, inhibitory potency
[3] = target: HIV-1 protease I50V/A71V (Human immunodeficiency virus type 1 group M subtype B, UniProt P12497, A559V/I538V/Q495K); assay type: biochemical, HIV-1 (NL4-3 strain); conditions: Ki compared with 12a

COC(=O)N[C@H](C(=O)N[C@@H](Cc1ccccc1)[C@@H](O)C[C@H](Cc1ccccc1)NC(=O)O[C@H]1CO[C@H]2OCC[C@H]21)C(C)(C)C [Compound 12a, (3R,3aS,6aR)-Hexahydrofuro[2,3-b]furan-3-yl ((2S,4S,5S)-4-hydroxy-5-((S)-2-((methoxycarbonyl)amino)-3,3-dimethylbutanamido)-1,6-diphenylhexan-2-yl)carbamate]
fold more potent than 15a in antiviral assays ([1]; wild-type HIV-1, compared with 15a): 3 fold

Cc1cccc(C)c1OCC(=O)N[C@@H](Cc1ccccc1)C[C@H](O)[C@H](Cc1ccccc1)NC(=O)O[C@H]1CO[C@H]2OCC[C@H]21 [Compound 5, reference compound]
fold better antiviral potency than 4 ([1]; compared with compound 4): 2 fold

COC(=O)NC1(C(=O)N[C@@H](Cc2ccccc2)C[C@H](O)[C@H](Cc2ccccc2)NC(=O)O[C@H]2CO[C@H]3OCC[C@H]32)CCCC1 [Compound 15b, (3R,3aS,6aR)-Hexahydrofuro[2,3-b]furan-3-yl ((2S,3S,5S)-3-hydroxy-5-(1-((methoxycarbonyl)amino)cyclopentane-1-carboxamido)-1,6-diphenylhexan-2-yl)carbamate]
fold less active than the corresponding tert-leucine analogue [2]: 560 fold

COC(=O)N[C@@H](C)C(=O)N[C@@H](Cc1ccccc1)[C@@H](O)C[C@H](Cc1ccccc1)NC(=O)O[C@H]1CO[C@H]2OCC[C@H]21 [Compound 12d, (3R,3aS,6aR)-Hexahydrofuro[2,3-b]furan-3-yl ((2S,4S,5S)-4-hydroxy-5-((S)-2-((methoxycarbonyl)amino)propanamido)-1,6-diphenylhexan-2-yl)carbamate]
fold less active than 12a in antiviral assays [1]: 6 fold

COC(=O)NC1(C(=O)N[C@@H](Cc2ccccc2)[C@@H](O)C[C@H](Cc2ccccc2)NC(=O)O[C@H]2CO[C@H]3OCC[C@H]32)CCCC1 [Compound 12b, (3R,3aS,6aR)-Hexahydrofuro[2,3-b]furan-3-yl ((2S,4S,5S)-4-hydroxy-5-(1-((methoxycarbonyl)amino)cyclopentane-1-carboxamido)-1,6-diphenylhexan-2-yl)carbamate]
fold less active than the corresponding tert-leucine analogue [2]: > 2500 fold

COC(=O)N[C@H](C(=O)N[C@@H](Cc1ccccc1)[C@@H](O)C[C@H](Cc1ccccc1)NC(=O)O[C@H]1CO[C@H]2OCC[C@H]21)C(C)C [Compound 12e, (3R,3aS,6aR)-Hexahydrofuro[2,3-b]furan-3-yl ((2S,4S,5S)-4-hydroxy-5-((S)-2-((methoxycarbonyl)amino)-3-methylbutanamido)-1,6-diphenylhexan-2-yl)carbamate]
fold less active than 12a in antiviral assays [1]: 5 fold
fold less active against wild-type protease ([2]; valine analogue compared with alanine analogue 12d / 12a): 4 fold

COC(=O)N[C@H](C(=O)N[C@@H](Cc1ccccc1)C[C@H](O)[C@H](Cc1ccccc1)NC(=O)O[C@H]1CO[C@H]2OCC[C@H]21)C(C)(C)C [Compound 15a, (3R,3aS,6aR)-Hexahydrofuro[2,3-b]furan-3-yl ((2S,3S,5S)-3-hydroxy-5-((S)-2-((methoxycarbonyl)amino)-3,3-dimethylbutanamido)-1,6-diphenylhexan-2-yl)carbamate]
fold more active than 12a against the I50V/A71V variant [3]: 4 fold
